# Key:
# [1] = system: Foxo3a transcriptional activity in HEK293 cells co-transfected with 14-3-3β; assay: Foxo3a luciferase reporter gene assay; format: cell-based, human; conditions: for Foxo3a transcriptional activity, effect in words: HEK293, luciferase reporter, PI3K inhibitors as controls, peptide 4 h
# Description: Jurkat cells were cultured in RPMI medium containing phenol red supplemented with 10% (v/v) heat deactivated fetal calf serum and 100 U/mL penicillin/streptomycin at 37°C in humidified atmosphere of 5% CO2. HEK293 cells were cultured in Dulbecco's modified eagle high glucose medium supplied with 10% fetal calf serum and 100 U per mL penicillin/streptomycin. Cell transfection was carried out by Jetprime® according to the manufacturer's recommendation (Polyplus, Illkirch, France).
# Forkhead box protein 3a induced transcriptional activity was measured on transiently transfected HEK293 cells (5 × 10^4). The reporter plasmid encoding luciferase under the control of a promotor containing forkhead responsive elements and the human p-Foxo3a-HA plasmid were gifts of Michael Greenberg provided by the Addgene consortium (#1787 and #1789; Brunet et al., [1999]). The plasmids encoding the mouse p-14-3-3 beta-GST protein and the functional forkhead transcription factor were used in a 1.5-fold amount compared to the reporter construct. The transfection was completed after 6 h and the cells could recover for 4 h in growth medium. The cells were serum starved using 1% (v/v) fetal bovine serum in phenol red free DMEM medium supplemented with antibiotics overnight. After 4 h peptide and 24 h of fusicoccin-A treatment the luciferase assay was developed using luciferase development kit from Promega E151 (Wisconsin, United States) and the luminescence was measured on a synergy H4 plate reader (Biotek). Control compounds were the PI3K inhibitors wortmannin and LY294002 (both Sigma Aldrich). The recorded data were normalized to the non-treated control sample. Significance and IC50-values were calculated from at least two biological replicates using GraphPad Prism. Data analysis was performed by non-linear regression using a four parameter Hill equation.
# If not stated in detail for the respective single experiment the statistical tests were performed using GraphPad Prism 5.04 (GraphPad, La Jolla, CA) using one-way ANOVA with Bonferonni or Dunnett's Post-hoc test. The number of technical and biological repeats was justified by analysis of error and reproducibility of results. Significance threshold P < 0.05 was applied to all experiments. For the data shown in Figure 3 three individuals for the in vivo experiments were used and each data point was performed in three technical replicates. The pull down experiments shown in Figures 4A,B were performed a single time and the data represent two technical repeats. Gel lanes were loaded with single (1x) or doubled (2x) amount of pull down proteins for better visibility. The data illustrated in Figures 4C,D were performed in two independent experiments. Silver stained gel lanes were evaluated by loading various amounts, and then the amount with optimized staining contrast was loaded and used for in-gel protein digestion. The pull down experiments shown in Figures 4E,F were performed a single time. The Western Blots and the pull down experiment shown in Figure 5 represent experiments in three and two independent experiments, respectively. Experiments in a well-based format (Figure 6) were performed with three technical and two biological replicates. All data illustrated in this manuscript show the mean ± standard deviation (SD) unless stated otherwise. The MS based protein identifications were performed in two technical analyses for each sample.
# Figure 6 Foxo3a luciferase reporter assay. The modulation of the Akt/PI3K/Foxo3a pathway by the cyclotide [T20K]kB1 binding to 14-3-3 proteins was investigated. HEK293 cells were transiently transfected with Foxo3a-Luc plasmid encoding luciferase under a promotor with Foxo response elements, Foxo3a and 14-3-3β. For control the reporter plasmid (basal value) was also co-transfected with the single functional effector proteins 14-3-3β or Foxo3a. Cells were treated under starving conditions with peptide or fusicoccin-A (FC-A) for 4 h or 24 h, respectively. […]
# 14-3-3 proteins = conditions: cited from earlier work
# Description: There are generally two types of 14-3-3 ligands: (i) inhibitors or (ii) stabilizers. […] In contrast, 14-3-3 stabilizers enforce a protein-protein interaction and they may account for an increased retention of 14-3-3 complexed proteins in the cytosol or other cellular compartments (Ottmann, [2013]; Bier et al., [2015]).
compound,measurement,setting,value
"O=c1cc(N2CCOCC2)oc2c(-c3ccccc3)cccc12 [LY294002, reference compound]","Foxo3a transcriptional activity, effect in words",[1],increased transcriptional activity
"C=CC(C)(C)OC[C@H]1O[C@H](O[C@@H]2C3=C([C@H](C)COC(C)=O)C[C@H](O)[C@]3(C)/C=C3/[C@@H](COC)CC[C@H]3[C@@H](C)[C@H]2O)[C@H](O)[C@@H](OC(C)=O)[C@@H]1O [fusicoccin-A, reference compound]",IC50,"[1]; HEK293 transfected with Foxo3a-Luc, Foxo3a and 14-3-3β, fusicoccin-A treatment 24 h, IC50 ± SD, two independent experiments, four parameter Hill fit, read-out: IC50, reduction of luciferase signal",39.1 ± 2.34 µM
same,effect as 14-3-3 stabilizer,"14-3-3 proteins; ref Skwarczynska et al., 2013, Bier et al., 2015, Milroy et al.",enforce protein complex formation of 14-3-3s with transcription factors
NC(=O)c1ncn([C@@H]2O[C@H](CO)[C@@H](O)[C@H]2O)c1O [mizoribine],modulation of 14-3-3 protein function,"14-3-3 proteins; ref Kawasaki, 2009",modulate 14-3-3 protein function
"COC[C@H]1OC(=O)c2coc3c2[C@@]1(C)C1=C(C3=O)[C@@H]2CCC(=O)[C@@]2(C)C[C@H]1OC(C)=O [wortmannin, reference compound]","Foxo3a transcriptional activity, effect in words",[1],increased transcriptional activity
